Laboratory results reported in patent US8128962B2, “Liquid compositions containing solubilized benzoyl peroxide, means for applying same and methods of treatment using same” (priority 2007, dated 2012).

Key:
[1] = Solubility of BP in solvents; format: physicochemical
[2] = test system: Propionibacterium acnes; settings: versus clindamycin or erythromycin; Leyden 2001; cited from earlier work
[3] = water and most dermatologically safe solvents; cited from earlier work

O=C(OOC(=O)c1ccccc1)c1ccccc1 [BP, benzoyl peroxide]
Solubility of BP in absolute alcohol [1]: poor
Effectiveness in killing the bacteria responsible for causing acne [2]: more effective than either clindamycin or erythromycin
Solubility of BP in water [3]: virtually insoluble
